Results published in patent US8129371B2, “Thienopyrimidine and pyrazolopyrimidine compounds and their use as mTOR kinase and PI3 kinase inhibitors” (Wyeth LLC, priority 2007, dated 2012).
Like-named read-outs stand apart in the source and are kept apart here.

What was measured:
[1] = target: T1, Human mTOR (FLAG-TOR) (Homo sapiens, UniProt P42345); experiment: Human mTOR kinase assay with purified enzyme, DELFIA format; type: biochemical
T1 construct: FLAG
Procedure: Enzymes are first diluted in kinase assay buffer (10 mM HEPES (pH 7.4), 50 mM NaCl, 50 mM β-glycerophosphate, 10 mM MnCl2, 0.5 mM DTT, 0.25 mM microcystin LR, and 100 mg/mL BSA). To each well, 12 μL of the diluted enzyme is mixed briefly with 0.5 μL test inhibitor or control vehicle dimethylsulfoxide (DMSO). […] The reaction plate is incubated for 2 hours (linear at 1-6 hours) at room temperature with gentle shaking and then terminated by adding 25 μL Stop buffer (20 mM HEPES (pH 7.4), 20 mM EDTA, 20 mM EGTA). […] The DELFIA Assay buffer and Enhancement solution can be purchased from PerkinElmer. 45 μL of the terminated kinase reaction mixture is transferred to a MaxiSorp plate (Nunc) containing 55 μL PBS. The His6-S6K is allowed to attach for 2 hours after which the wells are aspirated and washed once with PBS. 100 μL of DELFIA Assay buffer with 40 ng/mL Eu—P(T389)-S6K antibody is added. The antibody binding is continued for 1 hour with gentle agitation. The wells are then aspirated and washed 4 times with PBS containing 0.05% Tween-20 (PBST). 100 μL of DELFIA Enhancement solution is added to each well and the plates are read in a PerkinElmer Victor model plate reader. Data obtained is used to calculate enzymatic activity and enzyme inhibition by potential inhibitors.

[2] = target: T2, PI3K (Homo sapiens, UniProt P42336); experiment: Fluorescence polarization assay for PI3K; type: biochemical; details: read-out: PI3 Kinase α IC50
T2 construct: PI3 Kinase α IC50; other: PI3 Kinase α; other: PI3 Kinase α isoform, fluorescence polarization
T2 sequence (P42336 whole entry, canonical isoform): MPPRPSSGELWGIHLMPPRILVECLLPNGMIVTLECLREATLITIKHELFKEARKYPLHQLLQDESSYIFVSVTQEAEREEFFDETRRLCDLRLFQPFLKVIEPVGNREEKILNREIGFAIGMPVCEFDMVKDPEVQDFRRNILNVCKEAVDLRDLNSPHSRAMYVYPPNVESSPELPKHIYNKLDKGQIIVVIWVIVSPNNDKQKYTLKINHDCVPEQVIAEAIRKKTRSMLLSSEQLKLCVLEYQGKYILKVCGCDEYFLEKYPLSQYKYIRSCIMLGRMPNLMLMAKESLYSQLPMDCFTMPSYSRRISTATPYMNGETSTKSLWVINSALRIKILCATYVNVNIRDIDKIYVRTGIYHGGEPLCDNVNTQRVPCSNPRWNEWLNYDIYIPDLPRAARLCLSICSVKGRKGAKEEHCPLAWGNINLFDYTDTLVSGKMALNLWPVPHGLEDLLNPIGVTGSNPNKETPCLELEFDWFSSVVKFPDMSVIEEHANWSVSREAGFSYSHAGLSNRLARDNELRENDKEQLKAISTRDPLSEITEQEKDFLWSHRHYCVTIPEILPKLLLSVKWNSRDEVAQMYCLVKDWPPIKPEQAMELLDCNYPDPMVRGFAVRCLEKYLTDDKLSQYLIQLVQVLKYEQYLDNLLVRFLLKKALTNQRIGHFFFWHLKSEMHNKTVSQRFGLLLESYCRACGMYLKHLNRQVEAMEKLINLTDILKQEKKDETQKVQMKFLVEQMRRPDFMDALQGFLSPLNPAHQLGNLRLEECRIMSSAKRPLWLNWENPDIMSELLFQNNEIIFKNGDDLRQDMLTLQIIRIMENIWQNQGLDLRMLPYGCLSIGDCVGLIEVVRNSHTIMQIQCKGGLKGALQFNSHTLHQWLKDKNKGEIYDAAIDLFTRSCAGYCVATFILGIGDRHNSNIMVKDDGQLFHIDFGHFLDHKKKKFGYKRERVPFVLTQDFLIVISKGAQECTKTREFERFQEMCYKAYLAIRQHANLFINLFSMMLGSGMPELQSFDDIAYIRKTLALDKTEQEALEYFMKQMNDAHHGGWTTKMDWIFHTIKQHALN
Procedure: (§1) This assay is used to determine the IC50 of compounds of the present invention as it identifies inhibitors of PI3 kinase by measuring inhibition.
(§2) The assay is run by placing 5 μL of diluted enzyme per well, then 5 μL of diluted compound (or 9.5 μL enzyme then 0.5 μL compound in DMSO) is added and mixed. Then, 10 μL substrate is added to start the reaction. The samples are incubated 30-60 minutes, then the reaction is stopped by adding 20 μL stop/detector mix. PI3K is diluted with reaction buffer (e.g., 5 μL or 7.5 μL PI3K into 620 μL reaction buffer), and 5 μL of diluted enzyme is used per well. 5 μL reaction buffer or drug diluted in buffer (e.g., 4 μL/100 so final DMSO is 1% in reaction) is added to each. Pipetting up and down mixes the samples. Alternatively, the enzyme can be diluted to 1215 μL. In this case 9.8 μL is added per well and 0.2 μL compound is added in DMSO. To prepare 1 mL of substrate solution, 955 μL reaction buffer, 40 μL PIP2, and 2.5 μL ATP are mixed. 10 μL of substrate is added to each well to start the reaction.
(§3) Stop/detector mix is prepared by mixing 4 μL Red detector and 1.6 μL or 2.0 μL GST-GRP with 1 mL Stop buffer, which results in 10 nM probe and 70 nM GST-GRP). 20 μL of the stop/detector mix is added to each well to stop the reaction. The plates are read after 30-90 minutes keeping the red probe solutions dark. For the zero time point, stop/detector mix is added to the enzyme just before adding substrate. For an extra control, stop/detector mix is added to buffer (no enzyme) and substrate or to just buffer (no substrate). […] Plates are read on machines with filters for Tamra. The units are mP with no enzyme controls reading app 190-220 mP units. Fully active enzyme reduces fluorescence polarization down to 70-100 mP after 30 minutes.

[3] = target: T3, PI3K (Homo sapiens, UniProt P48736); experiment: Fluorescence polarization assay for PI3K; type: biochemical; details: read-out: PI3 Kinase γ IC50
T3 construct: PI3 Kinase γ IC50; other: PI3 Kinase γ; other: PI3 Kinase γ isoform, fluorescence polarization
T3 sequence (P48736 whole entry, canonical isoform): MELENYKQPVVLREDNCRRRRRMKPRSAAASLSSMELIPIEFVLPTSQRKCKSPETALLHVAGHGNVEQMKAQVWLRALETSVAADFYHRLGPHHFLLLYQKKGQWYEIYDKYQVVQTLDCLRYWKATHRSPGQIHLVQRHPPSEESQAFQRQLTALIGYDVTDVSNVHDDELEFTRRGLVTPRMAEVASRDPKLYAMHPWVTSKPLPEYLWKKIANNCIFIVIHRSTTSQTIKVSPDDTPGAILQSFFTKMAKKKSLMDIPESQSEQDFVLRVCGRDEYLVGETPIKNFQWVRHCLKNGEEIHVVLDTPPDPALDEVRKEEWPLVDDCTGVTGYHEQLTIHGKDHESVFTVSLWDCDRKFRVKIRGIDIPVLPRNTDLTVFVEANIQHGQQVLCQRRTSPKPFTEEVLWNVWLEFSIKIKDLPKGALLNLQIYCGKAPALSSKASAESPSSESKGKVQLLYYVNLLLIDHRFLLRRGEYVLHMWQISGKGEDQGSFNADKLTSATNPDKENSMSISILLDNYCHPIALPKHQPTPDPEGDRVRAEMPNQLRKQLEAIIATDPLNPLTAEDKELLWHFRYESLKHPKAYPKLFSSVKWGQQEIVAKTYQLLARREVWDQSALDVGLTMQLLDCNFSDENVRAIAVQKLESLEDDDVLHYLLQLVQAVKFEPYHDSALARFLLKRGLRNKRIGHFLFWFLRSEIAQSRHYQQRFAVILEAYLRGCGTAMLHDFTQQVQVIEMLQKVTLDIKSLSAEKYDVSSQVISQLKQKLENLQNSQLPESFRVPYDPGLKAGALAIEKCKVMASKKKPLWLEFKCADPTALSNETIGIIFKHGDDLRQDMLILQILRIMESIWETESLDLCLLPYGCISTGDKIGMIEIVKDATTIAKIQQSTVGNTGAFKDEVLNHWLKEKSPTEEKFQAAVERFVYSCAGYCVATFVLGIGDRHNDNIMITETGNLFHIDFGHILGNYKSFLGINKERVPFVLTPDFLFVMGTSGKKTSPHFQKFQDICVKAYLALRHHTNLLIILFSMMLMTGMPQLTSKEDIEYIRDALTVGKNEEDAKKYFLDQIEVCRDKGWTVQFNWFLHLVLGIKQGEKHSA
Procedure: as §1, §2, §3

[4] = tested on: prostate line LNCap; experiment: In vitro cell culture growth assay (MTS), LNCap; type: cell-based; details: Homo sapiens, LNCaP, 72 h, LNCap cells, three days after drug treatment
Procedure: (§4) Human tumor cell lines used include prostate lines LNCap and PC3MM2, breast lines MDA468, MCF7, renal line HTB44 (A498), colon line HCT116, and ovarian line OVCAR3. Cells were plated in 96-well culture plates. One day following plating, the inhibitors were added to cells. Three days after drug treatment, viable cell densities were determined by metabolic conversion (by viable cells) of the dye MTS, a well-established cell proliferation assay. The assays were performed using an assay kit purchased from Promega Corp. (Madison, Wis.) following the protocol supplied with the kit. The MTS assay results were read in a 96-well plate reader by measuring absorbance at 490 nm. The effect of each treatment was calculated as percent of control growth relative to the vehicle-treated cells grown in the same culture plate.

[5] = tested on: breast line MDA468; experiment: In vitro cell culture growth assay (MTS), MDA468; type: cell-based; details: Homo sapiens, 72 h, MDA468 cells, three days after drug treatment
Procedure: as §4

[6] = purified human mTOR enzyme, DELFIA format
[7] = PI3 Kinase α isoform, fluorescence polarization
[8] = PI3 Kinase γ isoform, fluorescence polarization

SMILES	IC50 [1, 6]	IC50 [2, 7]	IC50 [3, 8]	IC50 [4]	IC50 [5]	IC50 [1]	IC50 ([2]; PI3 Kinase α)	IC50 ([3]; PI3 Kinase γ)
CN1CCN(Cc2cc3nc(-c4ccc(NC(=O)Nc5cccnc5)cc4)nc(N4CC5CCC(C4)O5)c3s2)CC1 [Example 426, 1-(4-{6-[(4-methylpiperazin-1-yl)methyl]-4-(8-oxa-3-azabicyclo[3.2.1]oct-3-yl)thieno[3,2-d]pyrimidin-2-yl}phenyl)-3-pyridin-3-ylurea]	0.0047 µM	0.148 µM	2.61 µM	0.18 µM	0.38 µM	–	–	–
CCn1ncc2c(N3CC4CCC(C3)O4)nc(-c3ccc(NC(=O)NC4CCCCC4)cc3)nc21 [Example 227, 1-cyclohexyl-3-{4-[1-ethyl-4-(8-oxa-3-azabicyclo[3.2.1]oct-3-yl)-1H-pyrazolo[3,4-d]pyrimidin-6-yl]phenyl}urea]	–	–	–	1.2 µM	3.2 µM	0.015 µM	5.94 µM	> 10 µM
CN1CCN(c2ccc(NC(=O)Nc3ccc(-c4nc(N5C[C@H]6C[C@@H]5CO6)c5cnn(CC(F)(F)F)c5n4)cc3)cc2)CC1 [Example 345, 1-[4-(4-methylpiperazin-1-yl)phenyl]-3-(4-{4-[(1R,4R)-2-oxa-5-azabicyclo[2.2.1]hept-5-yl]-1-(2,2,2-trifluoroethyl)-1H-pyrazolo[3,4-d]pyrimidin-6-yl}phenyl)urea]	0.0385 µM	1.92 µM	> 10 µM	0.19 µM	0.45 µM	–	–	–
O=C(Nc1ccc(-c2nc(N3CC4CCC(C3)O4)c3cnn(C4CCCCO4)c3n2)cc1)Nc1cccnc1 (stereo not drawn) [Example 90, 1-{4-[4-(8-oxa-3-azabicyclo[3.2.1]oct-3-yl)-1-(tetrahydro-2H-pyran-2-yl)-1H-pyrazolo[3,4-d]pyrimidin-6-yl]phenyl}-3-pyridin-3-ylurea]	–	–	–	0.012 µM	0.06 µM	0.00039 µM	0.412 µM	4.33 µM
COC(=O)N1CCC(n2ncc3c(N4C5CCC4COC5)nc(-c4ccc(NC(=O)Nc5cccnc5)cc4)nc32)CC1 [Example 361, methyl 4-[4-(3-oxa-8-azabicyclo[3.2.1]oct-8-yl)-6-{4-[(pyridin-3-ylcarbamoyl)amino]phenyl}-1H-pyrazolo[3,4-d]pyrimidin-1-yl]piperidine-1-carboxylate]	0.000165 µM	1.83 µM	4.07 µM	0.002 µM	0.02 µM	–	–	–
COC(=O)N1CCC(n2ncc3c(N4CC5CCC(C4)O5)nc(-c4ccc(NC(=O)NC5CC5)cc4)nc32)CC1 [Example 12, methyl 4-[6-{4-[(cyclopropylcarbamoyl)amino]phenyl}-4-(8-oxa-3-azabicyclo[3.2.1]oct-3-yl)-1H-pyrazolo[3,4-d]pyrimidin-1-yl]piperidine-1-carboxylate]	–	–	–	0.023 µM	0.3 µM	0.00052 µM	–	> 10 µM
Nc1ccc(-c2nc(N3CC4CCC(C3)O4)c3cnn(CC(F)(F)F)c3n2)cc1 [Example 374, 4-[4-(8-oxa-3-azabicyclo[3.2.1]oct-3-yl)-1-(2,2,2-trifluoroethyl)-1H-pyrazolo[3,4-d]pyrimidin-6-yl]aniline]	0.057 µM	–	–	1 µM	5.5 µM	–	–	–
CNC(=O)Nc1ccc(-c2nc(N3C4COCC3C(O)C4)c3cnn(CC(F)(F)F)c3n2)cc1 (stereo not drawn) [Example 390, 1-{4-[4-(6-hydroxy-3-oxa-8-azabicyclo[3.2.1]oct-8-yl)-1-(2,2,2-trifluoroethyl)-1H-pyrazolo[3,4-d]pyrimidin-6-yl]phenyl}-3-methylurea]	0.54 µM	–	–	12 µM	10 µM	–	–	–
CS(=O)(=O)N1CCN(Cc2cc3nc(-c4ccc(NC(=O)Nc5cccnc5)cc4)nc(N4CC5CCC(C4)O5)c3s2)CC1 [Example 433, 1-{4-[6-{[4-(methylsulfonyl)piperazin-1-yl]methyl}-4-(8-oxa-3-azabicyclo[3.2.1]oct-3-yl)thieno[3,2-d]pyrimidin-2-yl]phenyl}-3-pyridin-3-ylurea]	0.00056 µM	0.012 µM	0.286 µM	–	0.06 µM	–	–	–
